Assay results published in patent US12708671B2, “Nanometric pharmaceutical composition in the form of liposomes or nanoemulsion containing specific sequences of interference RNA” (UNIVERSIDADE FEDERAL DO RIO GRANDE DO SUL, priority 2019, dated 2026).

What was measured:
[1] = test system: C6 glioma cells; assay: C6 glioma cell proliferation by counting in newbauer chamber; format: cell-based, rat; settings: 100 μM, 48 h, compared to the control
Method: Primary astrocyte cultures were prepared from scratch. The cortex of newborn Wistar rats (1-2 days old) were removed and mechanically dissociated in a balanced saline solution free of Ca^+2 and Mg^+2 (pH 7.4), containing 137 mM NaCl, 5, 36 mM KCl, 0.27 mM Na2HPO4, 1.1 mM KH2PO4, and 6.1 mM glucose. After centrifugation at 1000 g for 5 min, the pellet was resuspended in culture medium (pH 7.6) containing […], 8.39 mM of HEPES buffer (4-(2-hydroxyethyl)-1-acid piperazine ethanesulfonic) (pH 7.6), 23.8 mM NaHCO3, 0.1% fungizone® (Amphotericin B, antifungal), 0.032% antibiotic garamycin and 10% FBS. […]
After treatment with AMPCP, the medium was removed, the cells were washed with PBS buffer solution (phosphate buffered saline, solution containing NaCl and NaHPO4), trypsinized with 200 μL of 0.25% trypsin solution and counted in a newbauer chamber. […] The enzymatic activity of C6 cells was determined in an incubation medium (2 mM MgCl2, 120 mM NaCl, 5 mM KCl, 10 mM glucose, 20 mM HEPES [pH 7.4], and 2 mM AMP [adenosine monophosphate]) at 37° C. for 10 min, where the inorganic phosphate released by the action of CD73 was measured and the protein concentration was evaluated by the methods of malachite green and Coomassie Blue, respectively. Specific activity was expressed as μmol Pi released/min/mg protein. […]

[2] = target: T1, ecto-5′-nucleotidase/CD73 (Rattus norvegicus, UniProt P21588); assay: ecto-5′-nucleotidase/CD73 enzymatic activity (AMP hydrolysis, malachite green) in C6 glioma; format: cell-based, Rattus norvergicus; settings: for reduction of AMP hydrolysis: C6 glioma; for reduction of AMPase activity: C6 glioma cells silenced with NE/siRNA-CD73 complexes
T1 construct: endogenous in cells; host or cells: C6 glioma cells (rat)
T1 sequence (P21588 29-551): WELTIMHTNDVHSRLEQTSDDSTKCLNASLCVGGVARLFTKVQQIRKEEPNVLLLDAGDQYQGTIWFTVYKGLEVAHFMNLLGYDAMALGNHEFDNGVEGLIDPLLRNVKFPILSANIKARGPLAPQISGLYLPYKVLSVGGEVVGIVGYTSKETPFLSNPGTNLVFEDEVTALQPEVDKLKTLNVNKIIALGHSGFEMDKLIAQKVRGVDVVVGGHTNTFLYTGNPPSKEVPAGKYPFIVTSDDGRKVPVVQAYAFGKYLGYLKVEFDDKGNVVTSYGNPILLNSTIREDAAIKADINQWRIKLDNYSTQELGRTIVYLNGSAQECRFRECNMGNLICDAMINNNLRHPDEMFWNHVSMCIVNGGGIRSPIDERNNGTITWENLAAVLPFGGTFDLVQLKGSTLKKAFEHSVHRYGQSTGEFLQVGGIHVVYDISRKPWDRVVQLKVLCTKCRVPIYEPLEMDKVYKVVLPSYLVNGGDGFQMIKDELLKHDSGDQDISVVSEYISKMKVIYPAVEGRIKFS
Method: After treatment with AMPCP, the medium was removed, the cells were washed with PBS buffer solution (phosphate buffered saline, solution containing NaCl and NaHPO4), trypsinized with 200 μL of 0.25% trypsin solution and counted in a newbauer chamber. Once the cells were treated, enzyme activity, cell viability and immunocytochemistry assays were performed for CD73, in order to determine the reliability of the tests with the NE/siRNA or Lipofectamine®/siRNA complexes. The enzymatic activity of C6 cells was determined in an incubation medium (2 mM MgCl2, 120 mM NaCl, 5 mM KCl, 10 mM glucose, 20 mM HEPES [pH 7.4], and 2 mM AMP [adenosine monophosphate]) at 37° C. for 10 min, where the inorganic phosphate released by the action of CD73 was measured and the protein concentration was evaluated by the methods of malachite green and Coomassie Blue, respectively. Specific activity was expressed as μmol Pi released/min/mg protein.
Thus, it was evaluated how much the selective ecto-5′nucleotidase/CD73 inhibitor, AMPCP, could affect the proliferation of C6 glioma cells. The cells were exposed to increasing concentrations of AMPCP (1, 10 and 100 μM) and after 48 h cell proliferation was determined by counting in a newbauer chamber. In parallel, the activity of the enzyme ecto-5′nucleotidase/CD73 was analyzed by measuring the hydrolysis of AMP to adenosine (ADO) using the malachite green method.
For this purpose, specific siRNA-CD73 sequences were developed (siRNA-CD73-961 and siRNA-CD73-980; Table 1) and their functionality/specificity was assessed by transfecting C6 cells using Lipofectamine® according to the manufacturer's instructions. After 48 h of transfection, CD73 expression and enzymatic activity were evaluated by immunocytochemistry and AMP hydrolysis, respectively.
After the physical-chemical characterization and the optimization of the transfection, the effectiveness of the NE/siRNA-CD73-961 and NE/siRNA-CD73-980 complexes in silencing CD73 in C6 glioma was analyzed through immunocytochemical and AMP hydrolysis experiments.

[3] = test system: U87MG glioma cells; assay: U87MG cell proliferation by counting in Neubauer chamber; format: cell-based, human
Method: To assess the impact of CD73 silencing on U87MG glioma cell proliferation in culture, cells were silenced using the siRNA-CD73-441 sequence and counted using a Neubauer chamber.

[4] = test system: CD73; assay: CD73 protein expression in U87MG after silencing; format: cell-based, human
Method: (§1) The siRNA-CD73-441 sequence to silence human CD73 was evaluated for its efficiency.

[5] = test system: CD73; assay: CD73 enzymatic activity in U87MG after silencing; format: cell-based, human
Method: as §1

[6] = test system: U87MG glioma cells; assay: U87MG migration assay; format: cell-based, human
[7] = test system: U87MG glioma cells; assay: U87MG cell viability with temozolomide after CD73 silencing; format: cell-based; settings: Homo sapiens, U-87 MG, U87MG previously silenced for CD73 with siRNA-CD73-441, read-out: reduction of cell viability
Method: The participation of CD73 in chemoresistance was also investigated (FIG. 13). U87MG glioma cells were treated with temozolomide (100 μM) alone or in combination with siRNA-CD73-441. Temozolomide reduced cell viability by an average of 20% in glioma previously silenced for CD73.

Nc1ncnc2c1ncn2[C@@H]1O[C@H](COP(=O)(O)CP(=O)(O)O)[C@@H](O)[C@H]1O [AMPCP, adenosine 5′-(α, βmethylene) -diphosphate]
decrease in cell proliferation [1]: 30% | reduction of AMP hydrolysis ([2]; 10 μM): 40% | reduction of AMP hydrolysis ([2]; 100 μM): 50%

siRNA-CD73-980: interference RNA sequence for CD73 (gene ID: 58813, Rattus norvergicus), SEQ ID No: 2, Table 1 (ACCAGUGGAGGAUAAAAUUAGAAUUUUAUCCUCCACUGGUUA; listed as RNA, chemistry not given here)
reduction of AMPase activity [2]: 63%

siRNA-CD73-961: interference RNA sequence for CD73 (gene ID: 58813, Rattus norvergicus), SEQ ID No: 1, Table 1 (GCCAUCAAAGCAGACAUUAACUAAUGUCUGCUUUGAUGGCUG; listed as RNA, chemistry not given here)
reduction of AMPase activity [2]: 70%

siRNA-CD73-441: siRNA sequence to silence human CD73, SEQ ID No: 3, Table 1 (GGGGCCACUAGCAUCUCAAAUUUGAGAUGCUAGUGGCCCCUU; listed as RNA, chemistry not given here)
inhibition of U87MG cell proliferation ([3]; CD73 silencing): ~ 40% | CD73 protein expression [4]: efficient in decreasing | decrease of CD73 enzymatic activity [5]: ~ 90% | glioma cell migration ([6]; U87MG, CD73 silencing): impaired glioma cell migration

Nc1ncnc2c1ncn2[C@@H]1O[C@H](CO)[C@@H](O)[C@H]1O [adenosine]
proliferation of CD73-silenced U87MG cells ([3]; ADO treatment of cells silenced with siRNA-CD73-441): restored proliferation | migration of U87MG glioma cells ([6]; 24 hours of analysis): induced a sustained migration | migratory potential of CD73-silenced glioblastoma cells ([6]; adenosine treatment of cells silenced with siRNA-CD73-441): promoted recovery of the migratory potential

Cn1nnc2c(C(N)=O)ncn2c1=O [Temozolomide, temozolomide]
cytotoxicity at 100 µM [7]: 20%
